The record followed here is patent publication US4578398A, “Substituted 2,3,4,9-tetrahydro-1H-carbazole-1-acetic acid, compositions and use” (American Home Products Corporation, priority 1985, dated 1986).

Assay [1] relates to Phenylquinone Writhing. Nature of the assay: Drug effects in phenylquinone-induced writhing in mice. The assay is classed as in vivo, Male Swiss albino mice. The note with it: p.o., mouse, 60 min before phenylquinone i.p., writhes counted 15 min. As for the experimental part: A further test used to determine the utility of the compounds of the present invention is designated: DRUG EFFECTS IN PHENYLQUINONE-INDUCED WRITHING IN MICE.
The objective of this test is to determine the ability of test drugs to inhibit the nociceptive (pain) response of mice injected with a chemical irritant. This test is a primary screen for both peripheral and centrally acting analgesic drugs.
Male Swiss albino mice (15-25 g). The animals are fasted for 18 hours prior to use but have free access to water.
Drug Preparation and Administration:
Drugs are dissolved or suspended according to their solubility in 0.5% methyl cellulose or 0.5% Tween 80. They are administered by gastric lavage in a volume of 5 ml/kg. For primary screening all drugs are administered at the arbitrary dosage of 200 mg/kg, p.o. to a group of 10 mice.
A modification of the method of Siegmund et al., Proc. Soc. Exp. Biol. Med., 95, 729-731 (1957) is used. Groups of 5 mice are dosed with the test compound or vehicle control. Sixty minutes later the animals are injected i.p. with 0.3 ml/20 g body weight of a 0.02% solution of phenylquinone (PBQ; 2-phenyl-1,4-benzoquinone) and placed in individual observation boxes. The number of writhing or abdominal squirming movements made by each mouse during the following 15 min. period is counted. The experiment is repeated with another group of 5 mice and the mean number of writhes per mouse for a group of 10 mice is calculated.
Drug treated and vehicle-treated control groups are compared and the percentage protection conferred by the drug is calculated: [formula] where c=mean number of writhes in the control group where t=mean number of writhes in the test drug group

Assay [2] has as its system Adjuvant Edema. Briefly: Preventative Adjuvant Edema (Freund's complete adjuvant, hind paw edema volume in rats). The assay is classed as in vivo, Male Sprague Dawley rats. Conditions: p.o., rat, dosed day 0, 1 and 2, edema volume day 3. As for the experimental part:
This test is a primary screen for anti-inflammatory drugs.
Male Sprague Dawley rats (180-200 g) are used. The animals have free access water but food is withdrawn 18 hours before testing.
Drug Preparations and Administration:
Freund's complete adjuvant is prepared by suspending 5 mg killed and dried Mycobacterium butyricum (Difco) in 1 ml liquid paraffin. The test compounds are dissolved in distilled water or suspended in distilled water with a few drops of Tween 80 according to their solubility. […]
The method is essentially that described by Wax et al., J. Pharmacol. Exp. Ther., 192, 166-171 (1975). Groups of rats are injected intradermally in the left hind paw with 0.1 ml of Freund's complete adjuvant. The test compound or vehicle is administered immediately before the adjuvant, 24 hours and 48 hours after the adjuvant (day 0, 1 and 2). The injected hind paw volume is measured before the injection of adjuvant and 24 hrs. after the last drug administration (day 3) by means of a plethysmometer (Buxco Electronics Inc.). The difference between the hind paw volume on day 0 and day 3 represents the edema volume. Phenylbutazone (50 mg./kg, p.o.) is included as a positive control.
The mean edema volume (expressed as ml±SEM) is calculated for each group and the percentage protection conferred by the drug is calculated: [formula] where c is the mean edema volume for the untreated controls and t is the mean edema volume for the drug treated group.

In the case of `CCc1cccc2c3c([nH]c12)C(CC)(CC(=O)O)CCC3c1ccccc1` (single isomer, unassigned) [Example 2 e, 1,8-Diethyl-2,3,4,9-tetrahydro-4-phenyl-1H-carbazole-1-acetic acid], the “% Inhibition (Phenylquinone Writhing in Mice)” value in assay [1] (25 mg/kg) came to 28%. Also, the “% Inhibition (Preventative Adjuvant Edema)” value in assay [2] (25 mg/kg) is given as 37%.
Consider `CCc1cccc2c3c([nH]c12)C(CC)(CC(=O)O)CCC3c1ccccc1` (single isomer, unassigned) [Example 2 d, 1,8-Diethyl-2,3,4,9-tetrahydro-4-phenyl-1H-carbazole-1-acetic Acid], for which the “% Inhibition (Phenylquinone Writhing in Mice)” value in assay [1] (25 mg/kg) came to 17%. The “% Inhibition (Preventative Adjuvant Edema)” value in assay [2] (25 mg/kg) was determined as 12%.
As for `C=C(C)C1CCC(CC)(CC(=O)O)c2[nH]c3c(CC)cccc3c21` (single isomer, unassigned) [Example 3 e, 4-(1-Methylethenyl)-1,8-diethyl-2,3,4,9-tetrahydro-1H-carbazole-1-acetic Acid], in assay [1] (25 mg/kg), the “% Inhibition (Phenylquinone Writhing in Mice)” value is recorded as 0%. In addition, the “% Inhibition (Preventative Adjuvant Edema)” value in assay [2] (25 mg/kg) stood at 46%.
As to `C=CC1CCC(CC)(CC(=O)O)c2[nH]c3c(CC)cccc3c21` (single isomer, unassigned) [Example 1 g, 4-Ethenyl-1,8-diethyl-2,3,4,9-tetrahydro-1H-carbazole-1-acetic Acid], the “% Inhibition (Phenylquinone Writhing in Mice)” value in assay [1] (25 mg/kg) amounted to 21%. Further, the “% Inhibition (Preventative Adjuvant Edema)” value in assay [2] (25 mg/kg) was found to be 30%.
For `C=CC1CCC(CC)(CC(=O)O)c2[nH]c3c(CC)cccc3c21` (single isomer, unassigned) [Example 1 h, 4-Ethenyl-1,8-diethyl-2,3,4,9-tetrahydro-1H-carbazole-1-acetic Acid], in assay [1] (25 mg/kg), the “% Inhibition (Phenylquinone Writhing in Mice)” value is 0%. For the same compound, the “% Inhibition (Preventative Adjuvant Edema)” value in assay [2] (25 mg/kg) is reported as 62%.
Turning to `C=C(C)C1CCC(CC)(CC(=O)O)c2[nH]c3c(CC)cccc3c21` (single isomer, unassigned) [Example 3 d, 4-(1-Methylethenyl)-1,8-diethyl-2,3,4,9-tetrahydro-1H-carbazole-1-acetic Acid], the “% Inhibition (Phenylquinone Writhing in Mice)” value in assay [1] (200 mg/kg) amounted to 50%. Moreover, the “% Inhibition (Preventative Adjuvant Edema)” value in assay [2] (50 mg/kg) was found to be 25%.
